Legend:
[1] = tested on: H1N1pdm09 virus (A/Netherlands/602/2009); conditions: for IC50: 1 h
[2] = tested on: H1 ectodomain; conditions: pH 7.5

| SMILES | Infection inhibition in single-concentration screen [1] | Plateau of infection inhibition in dose-response [1] | IC50 [1] | Competition with fluorescein-labelled S5 for binding to H1 protein [2] |
| --- | --- | --- | --- | --- |
| CC[C@H](C)[C@@H]1NC(=O)[C@H](CO)NC(=O)CNC(=O)CNC(=O)[C@H](CC(=O)O)NC(=O)[C@@H]2CCCN2C(=O)[C@H](Cc2c[nH]c3ccccc23)NC(=O)[C@H](CC(N)=O)NC(=O)[C@H](Cc2ccccc2)NC(=O)[C@H](C(C)C)NC(=O)[C@H](Cc2ccccc2)NC(=O)[C@H](CC(C)C)NC(=O)[C@@H]2CSC(=N2)c2cc(ccn2)C[C@@H](C(=O)NCC(N)=O)NC(=O)[C@H](CCCCN)NC(=O)[C@H](CC(N)=O)NC(=O)[C@H]([C@@H](C)O)NC1=O [M5] | clear infection inhibition | plateau at less than full inhibition | 40.3 nM | compete |
| CC[C@H](C)[C@@H]1NC(=O)CNC(=O)[C@H](CC(N)=O)NC(=O)[C@@H]2CCCN2C(=O)[C@H](C(C)C)NC(=O)[C@H](Cc2ccccc2)NC(=O)[C@H](Cc2ccc(O)cc2)NC(=O)[C@@H]2CCCN2C(=O)[C@H](Cc2ccccc2)NC(=O)[C@H](Cc2ccc(O)cc2)NC(=O)[C@H](CC(C)C)NC(=O)[C@@H]2CSC(=N2)c2cc(ccn2)C[C@@H](C(=O)NCC(N)=O)NC(=O)[C@H](CCC(=O)O)NC(=O)[C@H](CC(C)C)NC(=O)[C@H]([C@@H](C)CC)NC(=O)[C@H](CC(N)=O)NC1=O [M7] | clear infection inhibition | plateau at less than full inhibition | 10.8 nM | compete |

Reference: paper PMC10548512 (Chemical Science, 2023)
